Patent US20110098177A1, “METHODS AND COMPOSITIONS OF PLANT MICRONUTRIENTS” (NOVUS INTERNATIONAL INC., priority 2006, published 2011)
Entries after “also recorded” stand apart in the source; their conditions may differ.

Legend:
Type in all cases: in vivo
Aristotle bell pepper = conditions: in vivo
Method in brief: (§1)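 Florida-47 tomato and Aristotle bell pepper transplants in 2-gal pots with low-nutrient medium (pH 5.36), drip-irrigated; products at three rates in deionized water plus non-ionic surfactant sprayed on newly matured leaves at 3 and 7 WAT. Toxicity scored at 4 WAT (0=no damage, 10=death); foliar tissue analysed at 6 WAT; marketable fruit harvested 4 times (tomato).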

Florida-47 tomato = conditions: in vivo
Method in brief: as §1

Tygress tomato plants [1] = assay: Foliar nutrient concentration at 6 WAT, open-field tomato (Examples 7-10); conditions: in vivo
Method in brief: (§2)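 Open-field Florida trial, spring 2008: transplants at 4-true-leaf stage on drip-irrigated raised beds were foliar-sprayed at 3 and 5 WAT (BIOX-CM at 4 and 5 WAT) at 60 gal/acre with non-ionic surfactant. Most recent mature leaves were sampled at 6 WAT. Tomato fruit was USDA-graded and analysed for minerals.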

[2] = system: Patriot bell pepper plants; assay: Foliar nutrient concentration at 6 WAT, open-field bell pepper (Examples 7-10); conditions: in vivo
Method in brief: as §2

Tygress tomato plants [3] = assay: Marketable yield, open-field tomato (Examples 7-10); conditions: in vivo
Method in brief: as §2

[4] = system: Patriot bell pepper plants; assay: Marketable yield, open-field bell pepper (Examples 7-10); conditions: in vivo
Method in brief: as §2

Tygress tomato plants [5] = assay: Nutrient concentration of tomato fruits at 10 WAT, open field (Examples 7-10); conditions: in vivo
Method in brief: as §2

Tygress tomato plants [6] = assay: Foliar nutrient concentration at 7 WAT, greenhouse tomato spring 2009 (Examples 13-15); conditions: 7 WAT (1 week after treatment)
Description: (§3) The following experiments were performed in a green house during the spring of 2009 at GCREC, Balm, University of Florida. Crop set-up, procedures and variables were as follows.
(§4) Transplants of ‘Tygress’ tomato plants were planted in 2-gallon pots filled with commercial planting medium with nutrient concentration of Fe, Zn, Mn, Cu being negligible and insufficient for crop growth. Irrigation and non-micronutrient fertilizer were provided daily through microsprinklers at recommended rates for tomato production in Florida. No pesticides were used. Treatments were as described in Tables 42, 43, and 44 below. BIOX-Cu was compared to Cu-sulfate, BIOX-EDC, and BIOX-O; and BIOX-Fe was compared to Fe-sulfate and BIOX-EDF. BIOX-MEZ is Ca-HMTBA.
(§5) Treatments were applied at 6 WAT (weeks after transplanting) using a water volume of 200 mL/plant. Deionized water was used for foliar applications. A non-ionic surfactant was added. Other nutrients were applied as appropriate under non-limiting conditions.
Foliar tissue nutrient analysis was performed at 3 WAT (i.e., 3 weeks before treatment) and 7 WAT (i.e., 1 weeks after treatment) on the non-applied newest leaves. The concentrations of N, P, K, Mg, Ca, B, Zn, Mn, Fe, and Cu in the foliar tissue were determined by a commercial laboratory. There were no significant differences between the foliar nutrient concentrations of any of the treatment groups prior to treatment.
(§6) Experimental design was a randomized complete block design with 6 replications. Data were analyzed using a general linear model, and means were separated using an LSD test at the 5% significance level.

Tygress tomato plants [7] = assay: Yields of tomato fruits, greenhouse spring 2009 (Examples 13-15); conditions: BIOX-Cu at 0.46 and 0.55 lb/acre; Cu-sulfate at 0.8 lb/acre; BIOX-EDC at 0.4 lb/acre
Description: as §3, §4, §5
Marketable fruit were collected three times during the growing season, starting at 10 WAT (4 weeks after the initial treatment). Tomato fruit was graded as marketable and non-marketable. Marketable fruit was sized as extra-large, large, and medium. Non-marketable fruit were harvested and number and weight recorded but not sized.
as §6

Tygress tomato plants [8] = conditions: BIOX-Cu at 0.46 and 0.55 lb/acre; Cu-sulfate at 0.8 lb/acre; BIOX-EDC at 0.4 lb/acre
Description: as §3, §4, §5
Toxicity of the treatments was assessed by rating foliar tissue using a visual scale, where 0=no injury and 10=plant death.
as §6

O=S(=O)([O-])[O-].[Cu+2] [BIOX-INC, copper sulfate]
Pepper toxicity (Aristotle bell pepper): 0
Tomato toxicity (Florida-47 tomato): 0
Foliar B concentration of tomato plants (Tygress tomato plants [1]): 40 ppm
Foliar Ca concentration of tomato plants (Tygress tomato plants [1]): 2.0%
Foliar Cu concentration of tomato plants (Tygress tomato plants [1]): 503 a ppm
Foliar Fe concentration of tomato plants (Tygress tomato plants [1]): 71 ppm
Foliar K concentration of tomato plants (Tygress tomato plants [1]): 5.3%
Foliar Mg concentration of tomato plants (Tygress tomato plants [1]): 0.60%
Foliar Mn concentration of tomato plants (Tygress tomato plants [1]): 208 ppm
Foliar N concentration of tomato plants (Tygress tomato plants [1]): 4.7%
Foliar P concentration of tomato plants (Tygress tomato plants [1]): 0.17%
Foliar Zn concentration of tomato plants (Tygress tomato plants [1]): 281 ppm
Foliar concentration of Cu of tomato plants compared to control, statement (Tygress tomato plants [1]): significant increase in the foliar concentration of Cu
Foliar B concentration of bell pepper plants [2]: 39 ppm
Foliar Ca concentration of bell pepper plants [2]: 2.0%
Foliar Cu concentration of bell pepper plants [2]: 503 a ppm
Foliar Fe concentration of bell pepper plants [2]: 71 ppm
Foliar K concentration of bell pepper plants [2]: 5.3%
Foliar Mg concentration of bell pepper plants [2]: 0.60%
Foliar Mn concentration of bell pepper plants [2]: 208 ppm
Foliar N concentration of bell pepper plants [2]: 4.7%
Foliar P concentration of bell pepper plants [2]: 0.17%
Foliar Zn concentration of bell pepper plants [2]: 281 ppm
Foliar concentration of Cu of bell pepper plants compared to control, statement [2]: significant increase in the foliar concentration of Cu
Marketable yield, Tomato (Tygress tomato plants [3]): 17.4 a ton/acre
Tomato marketable yield compared to control, statement (Tygress tomato plants [3]): significantly increased tomato marketable yields relative to control; also recorded: significantly higher marketable yield of tomato fruits compared to control
Marketable yield, Bell Pepper [4]: 7.3 ton/acre
B concentration of tomato fruits (Tygress tomato plants [5]): 21 ppm
Ca concentration of tomato fruits (Tygress tomato plants [5]): 0.2%
Cu concentration of tomato fruits (Tygress tomato plants [5]): 22 ppm
Fe concentration of tomato fruits (Tygress tomato plants [5]): 85 ppm
K concentration of tomato fruits (Tygress tomato plants [5]): 8.0%
Mg concentration of tomato fruits (Tygress tomato plants [5]): 0.38%
Mn concentration of tomato fruits (Tygress tomato plants [5]): 42 ppm
N concentration of tomato fruits (Tygress tomato plants [5]): 4.4%
P concentration of tomato fruits (Tygress tomato plants [5]): 0.68%
Zn concentration of tomato fruits (Tygress tomato plants [5]): 332 ppm
Copper concentrations in tomato leaves, statement (Tygress tomato plants [6]): highest leaf copper concentrations
Marketable tomato yields compared to non-treated control, statement (Tygress tomato plants [7]): did not alter marketable yields relative to the non-treated control
Toxicity compared to non-treated control plants, statement (Tygress tomato plants [8]): increased levels of toxicity
